Measurements taken from ChEMBL document CHEMBL1201862, “PubChem BioAssay data set” (2004).
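Cells were grown in 96-well plates and exposed to each compound for 48 hours at five concentrations; endpoints were interpolated linearly between bracketing concentrations, or set to the highest concentration if not reached. GI50 marks 50% less growth.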 Active and inactive are the calls of the source. No stated cut-off is given here; in the data, active = GI50 up to about 1.1 µM and inactive = higher.

Legend:
Assay in all cases: NCI-60 cell line screen, 48 h
786-0 = tested on: 786-0
A549 = tested on: A549
ACHN = tested on: ACHN
CAKI-1 = tested on: CAKI-1
CCRF-CEM = tested on: CCRF-CEM
COLO 205 = tested on: COLO 205
DLD-1 = tested on: DLD-1
DMS-114 = tested on: DMS-114
DMS-273 = tested on: DMS-273
EKVX = tested on: EKVX
HCC 2998 = tested on: HCC 2998
HCT-116 = tested on: HCT-116
HCT-15 = tested on: HCT-15
HL-60 = tested on: HL-60
HOP-62 = tested on: HOP-62
HOP-92 = tested on: HOP-92
HT-29 = tested on: HT-29
IGROV-1 = tested on: IGROV-1
K562 = tested on: K562
KM-20L2 = tested on: KM-20L2
KM12 = tested on: KM12
LOX IMVI = tested on: LOX IMVI
LXFL 529 = tested on: LXFL 529
M14 = tested on: M14
M19-MEL = tested on: M19-MEL
MOLT-4 = tested on: MOLT-4
Malme-3M = tested on: Malme-3M
NCI-H226 = tested on: NCI-H226
NCI-H23 = tested on: NCI-H23
NCI-H460 = tested on: NCI-H460
NCI-H522 = tested on: NCI-H522
OVCAR-3 = tested on: OVCAR-3
OVCAR-4 = tested on: OVCAR-4
OVCAR-5 = tested on: OVCAR-5
OVCAR-8 = tested on: OVCAR-8
RPMI-8226 = tested on: RPMI-8226
RXF 393 = tested on: RXF 393
RXF 631 = tested on: RXF 631
SF-268 = tested on: SF-268
SF-295 = tested on: SF-295
SF-539 = tested on: SF-539
SK-MEL-2 = tested on: SK-MEL-2
SK-OV-3 = tested on: SK-OV-3
SN12C = tested on: SN12C
SNB-19 = tested on: SNB-19
SNB-75 = tested on: SNB-75
SNB-78 = tested on: SNB-78
SR = tested on: SR
SW-620 = tested on: SW-620
U-251 = tested on: U-251
UACC-257 = tested on: UACC-257
UACC-62 = tested on: UACC-62
UO-31 = tested on: UO-31
XF498 = tested on: XF498
SK-MEL-28 = tested on: SK-MEL-28
SK-MEL-5 = tested on: SK-MEL-5
TK-10 = tested on: TK-10
A498 = tested on: A498

`Cc1cccc(C)c1CO` was tested, and the GI50 (786-0) was > 100 µM (inactive), the GI50 (A549) was > 100 µM (inactive) and the GI50 (ACHN) was > 100 µM (inactive). For the same molecule, the GI50 (CAKI-1) was > 100 µM (inactive), the GI50 (CCRF-CEM) was > 100 µM (inactive) and the GI50 (COLO 205) was > 100 µM (inactive). The GI50 (DLD-1) was > 100 µM (inactive), the GI50 (DMS-114) was > 100 µM (inactive) and the GI50 (DMS-273) was > 100 µM (inactive). For the same molecule, the GI50 (EKVX) was > 100 µM (inactive), the GI50 (HCC 2998) was > 100 µM (inactive) and the GI50 (HCT-116) was > 100 µM (inactive). The GI50 (HCT-15) was > 100 µM, the GI50 (HL-60) was > 100 µM (inactive) and the GI50 (HOP-62) was > 100 µM (inactive). For the same molecule, the GI50 (HOP-92) was > 100 µM (inactive), the GI50 (HT-29) was > 100 µM (inactive) and the GI50 (IGROV-1) was > 100 µM (inactive). For the same molecule, the GI50 (K562) was > 100 µM (inactive), the GI50 (KM-20L2) was > 100 µM (inactive) and the GI50 (KM12) was > 100 µM (inactive). The GI50 (LOX IMVI) was > 100 µM (inactive), the GI50 (LXFL 529) was > 100 µM (inactive) and the GI50 (M14) was > 100 µM (inactive). For the same molecule, the GI50 (M19-MEL) was > 100 µM (inactive), the GI50 (MOLT-4) was > 100 µM (inactive) and the GI50 (Malme-3M) was > 100 µM (inactive). For the same molecule, the GI50 (NCI-H226) was > 100 µM (inactive), the GI50 (NCI-H23) was > 100 µM (inactive) and the GI50 (NCI-H460) was > 100 µM (inactive). For the same molecule, the GI50 (NCI-H522) was > 100 µM (inactive), the GI50 (OVCAR-3) was > 100 µM (inactive) and the GI50 (OVCAR-4) was > 100 µM (inactive). For the same molecule, the GI50 (OVCAR-5) was > 100 µM (inactive), the GI50 (OVCAR-8) was > 100 µM (inactive) and the GI50 (RPMI-8226) was > 100 µM (inactive). For the same molecule, the GI50 (RXF 393) was > 100 µM (inactive), the GI50 (RXF 631) was > 100 µM (inactive) and the GI50 (SF-268) was > 100 µM (inactive). The GI50 (SF-295) was > 100 µM (inactive), the GI50 (SF-539) was > 100 µM (inactive) and the GI50 (SK-MEL-2) was > 100 µM (inactive). For the same molecule, the GI50 (SK-OV-3) was > 100 µM (inactive), the GI50 (SN12C) was > 100 µM (inactive) and the GI50 (SNB-19) was > 100 µM (inactive). The GI50 (SNB-75) was > 100 µM (inactive), the GI50 (SNB-78) was > 100 µM (inactive) and the GI50 (SR) was > 100 µM (inactive). For the same molecule, the GI50 (SW-620) was > 100 µM (inactive), the GI50 (U-251) was > 100 µM (inactive) and the GI50 (UACC-257) was > 100 µM (inactive). For the same molecule, the GI50 (UACC-62) was > 100 µM (inactive), the GI50 (UO-31) was > 100 µM (inactive) and the GI50 (XF498) was > 100 µM (inactive).
In the case of `COc1cccc(NC(=O)CC(=O)NN2C(=O)/C(=C/c3ccc(N(CCC#N)CCC#N)cc3)N=C2c2cc([N+](=O)[O-])ccc2Cl)c1`, the GI50 (A549) was > 100 µM (inactive), the GI50 (ACHN) was > 100 µM (inactive) and the GI50 (CAKI-1) was > 100 µM (inactive). For the same molecule, the GI50 (CCRF-CEM) was 0.499 µM (active), the GI50 (COLO 205) was > 100 µM (inactive) and the GI50 (DLD-1) was 60.3 µM (inactive). The GI50 (DMS-114) was 31 µM (inactive), the GI50 (DMS-273) was > 100 µM (inactive) and the GI50 (EKVX) was 56.1 µM (inactive). The GI50 (HCC 2998) was 96.8 µM (inactive), the GI50 (HCT-116) was > 100 µM (inactive) and the GI50 (HCT-15) was > 100 µM. The GI50 (HOP-62) was > 100 µM (inactive), the GI50 (HOP-92) was > 100 µM (inactive) and the GI50 (IGROV-1) was > 100 µM (inactive). For the same molecule, the GI50 (K562) was 44.3 µM (inactive), the GI50 (KM-20L2) was 25.8 µM (inactive) and the GI50 (KM12) was > 100 µM (inactive). For the same molecule, the GI50 (LOX IMVI) was > 100 µM (inactive), the GI50 (LXFL 529) was 40.7 µM (inactive) and the GI50 (M14) was > 100 µM (inactive). The GI50 (M19-MEL) was > 100 µM (inactive), the GI50 (MOLT-4) was 3.53 µM (inactive) and the GI50 (Malme-3M) was 32.7 µM (inactive). The GI50 (NCI-H226) was 13.6 µM (inactive), the GI50 (NCI-H23) was > 100 µM (inactive) and the GI50 (NCI-H522) was 43.9 µM (inactive). For the same molecule, the GI50 (OVCAR-3) was > 100 µM (inactive), the GI50 (OVCAR-4) was 99.1 µM (inactive) and the GI50 (OVCAR-5) was 25.5 µM (inactive). For the same molecule, the GI50 (OVCAR-8) was 45.8 µM (inactive), the GI50 (RPMI-8226) was 30.3 µM (inactive) and the GI50 (RXF 393) was > 100 µM (inactive). The GI50 (RXF 631) was > 100 µM (inactive), the GI50 (SF-268) was > 100 µM (inactive) and the GI50 (SF-295) was 87.1 µM (inactive). For the same molecule, the GI50 (SF-539) was > 100 µM (inactive), the GI50 (SK-MEL-28) was > 100 µM (inactive) and the GI50 (SK-MEL-2) was > 100 µM (inactive). For the same molecule, the GI50 (SK-MEL-5) was 42.2 µM (inactive), the GI50 (SK-OV-3) was > 100 µM (inactive) and the GI50 (SN12C) was > 100 µM (inactive). The GI50 (SNB-19) was > 100 µM (inactive), the GI50 (SNB-78) was > 100 µM (inactive) and the GI50 (SR) was 22.4 µM (inactive). For the same molecule, the GI50 (SW-620) was > 100 µM (inactive), the GI50 (TK-10) was > 100 µM (inactive) and the GI50 (U-251) was 75.3 µM (inactive). For the same molecule, the GI50 (UACC-62) was 64.7 µM (inactive), the GI50 (UO-31) was > 100 µM (inactive) and the GI50 (XF498) was 57.7 µM (inactive).
With `OCc1c[te]c(-c2ccccc2)c1` the GI50 (786-0) was > 100 µM (inactive), the GI50 (A498) was 92.3 µM (inactive) and the GI50 (A549) was 63.2 µM (inactive). For the same molecule, the GI50 (ACHN) was 53.3 µM (inactive), the GI50 (CAKI-1) was 47.4 µM (inactive) and the GI50 (CCRF-CEM) was 17.5 µM (inactive). The GI50 (DLD-1) was 37.2 µM (inactive), the GI50 (DMS-114) was 26.8 µM (inactive) and the GI50 (DMS-273) was 51.4 µM (inactive). For the same molecule, the GI50 (EKVX) was 99.8 µM (inactive), the GI50 (HCC 2998) was > 100 µM (inactive) and the GI50 (HCT-116) was 17.5 µM (inactive). The GI50 (HCT-15) was 20.2 µM, the GI50 (HL-60) was 12.6 µM (inactive) and the GI50 (HOP-62) was 32.2 µM (inactive). The GI50 (HT-29) was > 10 µM (inactive), the GI50 (IGROV-1) was > 100 µM (inactive) and the GI50 (K562) was 38.5 µM (inactive). The GI50 (KM-20L2) was > 100 µM (inactive), the GI50 (KM12) was 80.5 µM (inactive) and the GI50 (LXFL 529) was > 100 µM (inactive). For the same molecule, the GI50 (M14) was 84.7 µM (inactive), the GI50 (M19-MEL) was 33.9 µM (inactive) and the GI50 (MOLT-4) was 38.8 µM (inactive). For the same molecule, the GI50 (Malme-3M) was > 100 µM (inactive), the GI50 (NCI-H226) was 24.9 µM (inactive) and the GI50 (NCI-H23) was 22.1 µM (inactive). For the same molecule, the GI50 (NCI-H460) was 31 µM (inactive), the GI50 (OVCAR-3) was 15.5 µM (inactive) and the GI50 (OVCAR-4) was 32 µM (inactive). The GI50 (OVCAR-5) was > 100 µM (inactive), the GI50 (OVCAR-8) was 34.4 µM (inactive) and the GI50 (RPMI-8226) was 24 µM (inactive). For the same molecule, the GI50 (RXF 393) was 42.2 µM (inactive), the GI50 (RXF 631) was 55.6 µM (inactive) and the GI50 (SF-295) was 2.25 µM (inactive). The GI50 (SF-539) was 28.4 µM (inactive), the GI50 (SK-MEL-28) was 63.1 µM (inactive) and the GI50 (SK-MEL-2) was 25.8 µM (inactive). The GI50 (SK-MEL-5) was 30.7 µM (inactive), the GI50 (SK-OV-3) was > 100 µM (inactive) and the GI50 (SN12C) was 16 µM (inactive). The GI50 (SNB-75) was 44.5 µM (inactive), the GI50 (SNB-78) was > 100 µM (inactive) and the GI50 (SW-620) was > 100 µM (inactive). For the same molecule, the GI50 (TK-10) was > 100 µM (inactive), the GI50 (U-251) was 34.6 µM (inactive) and the GI50 (UACC-257) was 57.5 µM (inactive). The GI50 (UACC-62) was 31.3 µM (inactive), the GI50 (UO-31) was 23.3 µM (inactive) and the GI50 (XF498) was 0.56 µM (active).
